In EP1874311B1, “A METHOD FOR PREVENTING, DELAYING OR REVERTING ABNORMAL AMYLOID DEPOSITION” (Research & Innovation S.p.A., priority 2005, dated 2006):
Where two headings read alike, the source gives them in different places. Marks after values point to notes of the source that are not given here.

Legend:
H4/APP cells = test: Secretion of total beta-amyloid into culture medium of H4/APP cells (ELISA); assay type: cell-based, Human; details: for beta-amyloid concentration in culture medium: h4/app cells, 120 min; for activity at 10 µM / activity at 30 µM: read-out: beta-amyloid concentration in culture medium
Procedure: Human neuroglioma (H4) cells, stably transfected with the gene codifying for the human protein APP695 having mutations related to Alzheimer disease, have been used.
Cells were grown in OPTI-MEM containing 10% FBS (foetal bovine serum), hygromycin (0.2 mg/ml) and blasticidine (0.002 mg/ml).
The Aβ peptide in cells is produced by the sequential processing of beta- and gamma-secretases proteases and is then secreted in the culture medium.
Peptide concentration in the extracellular medium was measured using a specific ELISA methodology.
Confluent H4/APP cells where incubated for 2 h with the vehicle (0.1 % DMSO) or with nicardipine at different concentrations (3µM, 10µM, 30µM), beta-amyloid concentration in culture medium is expressed as % control

TG2576 mice = test: Plasma amyloidogenic Aβ peptides in TG2576 mice after i.p. administration (ELISA); assay type: in vivo; details: 3 hours after 10 mg/kg i.p.; for Aβ1-42 (%) / Total Aβ (%): before treatment = 100
Procedure: The selected dihydropyridine, nicardipine (see table 2) as well as nimodipine were administered, in TG2576 animals, at dose of 10 mg/Kg i.p. Animals were bleed before treatment for assessment of basal circulating Aβ peptides as well as 3 hours post-treatment. Determination of blood amyloidogenic Aβ peptide concentration was performed using ELISA technique.
Table 2 Levels of the amyloidogenic peptides in plasma of TG2576 mice before and 3 hours following administration of the exemplified dihydropyridines

[1] = Homo sapiens, 10µM, 2 h incubation, confluent H4/APP cells, vehicle = 100
[2] = Homo sapiens, 30µM, 2 h incubation, confluent H4/APP cells, vehicle = 100

Compound | activity at 10 µM (H4/APP cells; [1]) [%] | activity at 30 µM (H4/APP cells; [2]) [%] | Aβ1-42 (%) (TG2576 mice) | Total Aβ (%) (TG2576 mice) | also measured
COC(=O)C1=C(C)NC(C)=C(C(=O)OCCCN2CCC(c3ccccc3)(c3ccccc3)CC2)C1c1cccc([N+](=O)[O-])c1 (single isomer, unassigned; (-)) [(-)Niguldipine, (-)niguldipine] |  |  |  |  | inhibition of the extracellular amount of Aβ peptides (H4/APP cells; 30 µM): 53%; beta-amyloid concentration in culture medium (H4/APP cells; 10 µM): 68* % control; beta-amyloid concentration in culture medium (H4/APP cells; 30 µM): 47* % control
COC(=O)C1=C(C)NC(C)=C(C(=O)OCCN(C)Cc2ccccc2)C1c1cccc([N+](=O)[O-])c1 (stereo not shown) [Nicardipine, nicardipine] | 62 | 58 | 176 | 170 | 
COCCOC(=O)C1=C(C)NC(C)=C(C(=O)OC(C)C)C1c1cccc([N+](=O)[O-])c1 (stereo not shown) [Nimodipine, nimodipine] |  |  | 156 | 87 | Total Aβ (pM) (TG2576 mice; n=7): 759,1±27,0 pM
COC(=O)C1=C(C)NC(C)=C(C(=O)OCCCN2CCC(c3ccccc3)(c3ccccc3)CC2)C1c1cccc([N+](=O)[O-])c1 (single isomer, unassigned; (+)) [(+)Niguldipine, (+)niguldipine] |  |  |  |  | activity at 10 µM (H4/APP cells; Homo sapiens, 2 h): 71%; activity at 30 µM (H4/APP cells; Homo sapiens, 2 h): 43%; inhibition at 30 µM (H4/APP cells; Homo sapiens, read-out: inhibition of the extracellular amount of Aβ peptides): 57%
COC(=O)C1=C(C)NC(C)=C([N+](=O)[O-])C1c1ccccc1C(F)(F)F (stereo not shown) [BayK 8644] | 98 | 96 |  |  | beta-amyloid content in culture media from H4/APP cells (H4/APP cells; result in words): did not affect
